“Also recorded” adds a separate entry of the source. Read-outs that look alike come from different tables or passages of the source.
Assays:
[1] = test system: Fibroblasts; test: Viability of cells in contact with crosslinking agents or gels with quenching agents (Example 2); type: cell-based
Protocol: Gels containing various ratios of reactive groups in crosslinking agents to those in the matrix molecules with quenching agents were prepared as indicated in Table 2. Normality was used to indicate the number of reactive groups in the crosslinking agents, the number of functional groups in the matrix molecules, or the number of moieties in the quenching agents. Live cells were seeded and added to the gels, and cell viability was observed. Crosslinking agents were divided into two groups: highly toxic and less toxic. Glutaraldehyde was one of the highly toxic crosslinking agents and epoxide and genipin were the less toxic crosslinking agents. The quenching agents tested were poly-L-lysine and γ-polyglutamic acid.
The above results were summarized from various sets of experiments. Specifically, final concentrations of 0.1 mN, 0.5 mN, 1 mN, and 5 mN of glutaraldehyde were tested alone or added to a gelatin or collagen solution in the presence of poly-L-Lysine as a quenching reagent.

[2] = test system: NIH3T3 fibroblast cells; test: Toxicity of collagen gels with crosslinking agents (Example 3); type: cell-based; details: for relative toxicity among the three crosslinking agents: collagen gels
Protocol: Gels were prepared from collagen with glutaraldehyde, EX-810, and genipin at 5 mN, 1 mN, 0.5 mN, and 0.1 mN, respectively. Out of the three crosslinking agents, glutaraldehyde was the most toxic and genipin was the least toxic. Normality was used to indicate the numbers of reactive groups in the crosslinking agents. NIH3T3 fibroblast cells were cultured with the gels and a culture medium in a 96-well plate at 4×10^4 cells per well. Cell viability was observed.

[3] = test system: Fibroblasts
Protocol: The cytotoxic effect of the adhesive was evaluated by applying 10 μL of the adhesive to the center of a well of a 24-well plate. Fibroblasts (2.0×10^4 cell/well) were seeded and incubated at 37° C. with 5% CO2 for 38 hours. The number of viable cells was quantified by a hemacytometer.

| Compound | fibroblast viability in gel ([1]; 5 mN crosslinker and total 5 mN collagen and poly-L-lysine) | Viability of cells ([1]; Normality ratio 1:1 of reactive groups in crosslinking agent to functional groups in matrix molecules and quenching agents) | Viability of cells (alive) ([1]; Normality ratio 1:5) | Viability of cells (alive) ([1]; Normality ratio 1:10) | Viability of cells (alive) ([1]; Normality ratio 1:50) | Viability of cells ([1]; Normality ratio 5:1 of reactive groups in crosslinking agent to functional groups in matrix molecules and quenching agents) | Viability of cells (alive) ([1]; crosslinking agent only, 1 mN) | Viability of cells ([1]; crosslinking agent only, ≥5 mN) | cell proliferation ([2]; collagen gel, 1 mN crosslinker) | cells survived ([2]; collagen gel, 1 mN crosslinker) | cell viability ([2]; collagen gel, 5 mN crosslinker) | relative toxicity among the three crosslinking agents [2] | cytotoxicity of the adhesive [3] | Viability of cells (alive) [1] | cell viability in gel [1] | fibroblast viability in gel [1] | Viability of cells (alive) ([1]; 24 h, 0.1 mN) | cells survived ([1]; 24 h, 0.1 mN) | cells adhered to the gel ([2]; collagen gel, 0.1 mN crosslinker) | cell viability ([2]; collagen gel, 0.5 mN crosslinker, 24 hours of culturing) |
| --- | --- | --- | --- | --- | --- | --- | --- | --- | --- | --- | --- | --- | --- | --- | --- | --- | --- | --- | --- | --- |
| COC(=O)C1=CO[C@@H](O)[C@@H]2C(CO)=CC[C@H]12 [genipin] | some fibroblasts died; also recorded: most fibroblasts survived in the distal area | Some | 100% | 100% | 100% | All die | ≥80% | All die | no cell proliferation | over 80% | all cells died | least toxic | increased with elevated concentration of genipin |  |  |  |  |  |  |  |
| O=CCCCC=O [glutaraldehyde] |  |  |  |  |  |  |  |  |  |  |  | most toxic |  | 100% | most adjacent cells died | survived and proliferated like the control groups | ~20% | about 20% | 20% | most cells died |

From patent publication US12186397B2, “Adhesive cell tissue gels” (National Cheng Kung University, priority 2011, dated 2025)
